Measurements from PMC12023740, “Semi-synthesis and biological activities of heterocyclic compounds containing camphor” (RSC Advances, 2025).

What was measured:
[1] = tested on: MCF-7 breast carcinoma cells; assay: MTT cytotoxicity assay, MCF-7; type: cell-based, human; conditions: mean ± SD of three experiments
Experimental: (§1) MCF-7 Adenocarcinoma of the breast in humans and A549 […] lines of cells (purchased from Labco's Sigma-Aldrich) were employed to evaluate the newly synthesized compounds' anti-cancer potential. […] The American type culture collection provided the cell lines and were cultured in 10% FBS added to DMEM (Invitrogen/Life Technologies) (Hyclone), a 10 μg ml^−1 of insulin (Sigma), and a 1% penicillin-streptomycin. The suppliers of all other chemicals and reagents were either Invitrogen or Sigma.
(§2) For the MTT assay, cells were plated at a density of 1.2 to 1.8 × 10 000 cells per well in a total volume of 200 μl, comprising 100 μl of a full growing medium and 100 μl of the substance that was evaluated in each well. The cells were then incubated for 24 hours.
(§3) Aspirate the cells gently using a pipette after adding 6.0 to 8.0 ml of full growth media. […] Transfer the proper aliquots to new culture vessels, discard the supernatant, and resuspend the cell pellet in fresh growth media. For a full day, incubate the cultures at 37 °C. […] To perform the MTT assay, examine the plates using an inverted microscope.
(§4) Additionally, incorporate a blank control containing complete medium without any cells. Remove the cultures from the incubator and transfer them to a laminar flow hood or sterile workspace. […] Add the reconstituted MTT in an amount equal to 10% of the total volume of the culture medium. Return the cultures to the incubator for 2 to 4 hours, depending on the cell type and maximum cell density; typically, 2 hours is adequate, though longer incubation may be required for low-density or less metabolically active cells. It is important to maintain consistent incubation times for accurate comparisons.
(§5) Gentle mixing with a gyratory shaker will facilitate the dissolution of the crystals. In denser cultures, pipetting up and down may be necessary to ensure complete dissolution of the MTT formazan crystals. Measure the absorbance spectrophotometrically at 570 nm and assess the background absorbance of the multi-well plates at 690 nm, which should be subtracted from the 570 nm measurement. The tests in multi-well plates can be read using an appropriate plate reader, or the contents can be transferred to cuvettes for measurement.

A549 lung cancer cells = assay: MTT cytotoxicity assay, A549; type: cell-based, human; conditions: mean ± SD of three experiments
Experimental: as §1, §2, §3, §4, §5

EGFR^WT = target: T1, EGFR^WT (Homo sapiens, UniProt P00533); assay: EGFR Kinase Assay Kit (Catalog # 40321), Kinase-Glo Max luminescence; type: biochemical; conditions: five concentrations, read-out: EGFR kinase inhibitory activity IC50
T1 construct: purchased 40321
T1 sequence (P00533 668-1210 limits assumed): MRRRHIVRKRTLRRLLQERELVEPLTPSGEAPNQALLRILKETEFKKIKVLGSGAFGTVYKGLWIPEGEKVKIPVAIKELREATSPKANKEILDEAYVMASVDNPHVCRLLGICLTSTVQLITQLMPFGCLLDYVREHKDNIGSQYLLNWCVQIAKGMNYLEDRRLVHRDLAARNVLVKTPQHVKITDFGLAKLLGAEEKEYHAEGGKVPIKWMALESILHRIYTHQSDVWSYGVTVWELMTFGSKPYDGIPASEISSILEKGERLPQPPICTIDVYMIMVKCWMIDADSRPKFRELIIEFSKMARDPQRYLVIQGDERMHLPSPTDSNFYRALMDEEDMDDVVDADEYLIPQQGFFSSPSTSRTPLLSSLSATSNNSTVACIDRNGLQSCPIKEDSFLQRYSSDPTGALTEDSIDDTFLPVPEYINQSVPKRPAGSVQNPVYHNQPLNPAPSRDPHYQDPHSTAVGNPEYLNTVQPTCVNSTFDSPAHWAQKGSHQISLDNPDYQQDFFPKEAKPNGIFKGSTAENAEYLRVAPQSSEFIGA

| IC50 (EGFR^WT) | SMILES | IC50 ([1]; Homo sapiens, MCF7, MTT test) | IC50 (A549 lung cancer cells; Homo sapiens, A549, MTT test) | IC50 (A549 lung cancer cells; MTT test) | IC50 ([1]; MTT test) |
| --- | --- | --- | --- | --- | --- |
| – | CC12CCC(C3(C1)NC(=S)NC(=N)C3C#N)C2(C)C (stereo not shown) [Compound 6, 6′-Imino-4,7,7-trimethyl-2′-thioxotetrahydro-1′H-spiro[bicyclo[2.2.1]heptane-2,4′-pyrimidine]-5′-carbonitrile] | 19.9 ± 0.73 µM | 28.5 ± 0.99 µM | – | – |
| – | CC12CCC(C3(C1)NC(=S)NC(=O)C3C#N)C2(C)C (stereo not shown) [Compound 7, 4,7,7-Trimethyl-6′-oxo-2′-thioxotetrahydro-1′H-spiro[bicyclo[2.2.1]heptane-2,4′-pyrimidine]-5′-carbonitrile] | 10.1 ± 0.39 µM | 22.2 ± 0.77 µM | – | – |
| – | CC(=O)C1C(=O)NC(=S)NC12CC1(C)CCC2C1(C)C (stereo not shown) [Compound 8, 5′-Acetyl-4,7,7-trimethyl-2′-thioxodihydro-1′H-spiro[bicyclo[2.2.1]heptane-2,4′-pyrimidin]-6′(5′H)-one] | 6.15 ± 0.23 µM | 3.34 ± 0.12 µM | – | – |
| – | CC12CCC(C3(C1)NC(=O)NC(=N)C3C#N)C2(C)C (stereo not shown) [Compound 10, 6′-Imino-4,7-trimethyl-2′-oxotetrahydro-1′H-spiro[bicyclo[2.2.1]heptane-2,4′-pyrimidine]-5′-carbonitrile] | 12.7 ± 0.47 µM | 23.3 ± 0.81 µM | – | – |
| – | CC12CCC(C3(C1)NC(=O)NC(=O)C3C#N)C2(C)C (stereo not shown) [Compound 11, 4,7,7-Trimethyl-2′,6′-dioxotetrahydro-1′H-spiro[bicyclo[2.2.1]heptane-2,4′-pyrimidine]-5′-carbonitrile] | 35 ± 1.32 µM | 56.6 ± 2.01 µM | – | – |
| – | CC(=O)C1C(=O)NC(=O)NC12CC1(C)CCC2C1(C)C (stereo not shown) [Compound 12, 5′-Acetyl-4,7,7-trimethyl-1′H-spiro[bicyclo[2.2.1]heptane-2,4′-pyrimidine]-2′,6′(3′H,5′H)-dione] | 3.2 ± 0.12 µM | 14.4 ± 0.5 µM | – | – |
| – | Cc1ccc(-c2cs/c(=N/N=C3/CC4CCC3(C)C4(C)C)[nH]2)cc1 (stereo not shown) [Compound 16a] | 2.16 ± 0.08 µM | 4.13 ± 0.14 µM | – | – |
| – | CC12CCC(C/C1=N/N=c1\[nH]c(-c3ccc(Cl)cc3)cs1)C2(C)C (stereo not shown) [Compound 16b] | 8.29 ± 0.3 µM | 15.2 ± 0.53 µM | – | – |
| – | CC12CCC(C/C1=N/N=c1\[nH]c(-c3ccc(Br)cc3)cs1)C2(C)C (stereo not shown) [Compound 16c] | 2.84 ± 0.1 µM | 1.29 ± 0.04 µM | – | – |
| 0.198 µM | CC12CCC(C/C1=N/N=C/c1cn(-c3ccc(S(N)(=O)=O)cc3)nc1-c1ccc(Br)cc1)C2(C)C (stereo not shown) [Compound 20] | 0.78 ± 0.03 µM | 1.69 ± 0.06 µM | – | – |
| – | Cc1nc(Nc2ncc(C(=O)Nc3c(C)cccc3Cl)s2)cc(N2CCN(CCO)CC2)n1 [Dasatinib, reference compound] | 7.99 ± 0.29 µM | 11.8 µM | 11.8 ± 0.41 µM | – |
| – | COc1cccc2c1C(=O)c1c(O)c3c(c(O)c1C2=O)C[C@@](O)(C(=O)CO)C[C@@H]3O[C@H]1C[C@H](N)[C@H](O)[C@H](C)O1 [Doxorubicin, reference compound] | 3.1 µM | 2.43 ± 0.08 µM | – | 3.12 ± 0.11 µM |
| – | C#Cc1cccc(Nc2ncnc3cc(OCCOC)c(OCCOC)cc23)c1 [Erlotinib, reference compound] | 13.9 ± 1.3 µM | – | – | – |
